Each structure is given as a SMILES string. Bounds are passed on as bounds.

The text below walks through data of patent US20040121965A1, “Method of treating resistant tumors” (Wyeth Holdings Corporation, priority 2002, published 2004).

The subject of one experiment is KB-3-1. In words: Cell survival assay (SRB), KB-3-1. The format is cell-based, human. The note with it: Homo sapiens, KB 3-1, KB-3-1 cells (paclitaxel-sensitive parent); read-out: In vitro IC50 (nM) KB-3-1. The gist of the method:
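Cells were exposed in duplicate to serially diluted compound for 3 days, then fixed with 10% TCA (final) for 1 hr at 4 °C, stained 10 min with 0.04% SRB in 1% acetic acid, dissolved in 10 mM Trizma Base and read by absorbance. IC50 is the concentration inhibiting 50% of growth.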

A further experiment deals with KB-8-5 (MDR1+). In words: Cell survival assay (SRB), KB-8-5 (MDR1+). The note with it: for IC50: Homo sapiens, MDR1, read-out: In vitro IC50 (nM) KB85.
Another experiment has as its system KB-V1 (MDR1++). In words: Cell survival assay (SRB), KB-V1 (MDR1++). The note with it: for IC50: Homo sapiens, read-out: In vitro IC50 (nM) KBV1.

`CCOC(=O)/C(C)=C/[C@H](C(C)C)N(C)C(=O)[C@@H](NC(=O)[C@@H](NC)C(C)(C)c1ccc(OC)cc1)C(C)(C)C` [Example 56, N,O,β,β-tetramethyl-L-tyrosyl-N^1-[(1S,2E)-4-ethoxy-1-isopropyl-3-methyl-4-oxo-2-butenyl]-N^1,3-dimethyl-L-valinamide]: the IC50 in the experiment on KB-3-1 amounted to 26.3 nM. For the same compound, in the experiment with KB-8-5 (MDR1+), the “Ratio KB85/KB” value was 18.2 and the IC50 came out at 479 nM. In addition, in the experiment with KB-V1 (MDR1++), the “Ratio KBV1/KB” value amounted to 67.6 and the IC50 was 1780 nM.
In the case of `CCOC(=O)/C(C)=C/[C@H](C(C)C)N(C)C(=O)[C@@H](NC(=O)C(NC)C(C)(C)c1csc2ccccc12)C(C)(C)C` (stereo partly drawn) [Example 25, 3-(1-Benzothien-3-yl)-N-methylvalyl-N^1-[(l S,2E)-4-ethoxy-1-isopropyl-3-methyl4-oxo-2-butenyl]-N^1,3-dimethyl-L-valinamide], the IC50 with KB-3-1 stood at 479 nM. Besides, in the experiment with KB-8-5 (MDR1+), the “Ratio KB85/KB” value was 3.2 and the IC50 came out at 1510 nM. In the experiment with KB-V1 (MDR1++), the “Ratio KBV1/KB” value is given as 6.2 and the IC50 was 2950 nM.
The like results for `CN[C@H](C(=O)N[C@H](C(=O)N(C)[C@H](/C=C(\C)C(=O)O)C(C)C)C(C)(C)c1ccc(C(=O)c2ccccc2)cc1)C(C)(C)c1ccccc1` [Example 90, N,β,β-trimethyl-L-phenylalanyl-4-benzoyl-N-[(1S,2E)-3-carboxy-1-isopropyl-2-butenyl]-N,β,β-trimethyl-L-phenylalaninamide] were, in that order, 22.4 nM, 4.3, 96.9 nM, 133.9 and at least 3000 nM.
For the compound `CN[C@H](C(=O)N[C@H](C(=O)N(C)[C@H](/C=C(\C)C(=O)O)C(C)C)C(C)(C)SCc1ccc(OC)cc1)C(C)(C)c1ccccc1` [Example 82, N,β,β-trimethyl-L-phenylalanyl-N^1-[(1S,2E)-3-carboxy-1-isopropyl-2-butenyl]-3-[(4-methoxybenzyl)sulfanyl]-N^1-methyl-L-valinamide], in the experiment on KB-3-1, the IC50 worked out at 59 nM. Further, in the experiment with KB-8-5 (MDR1+), the “Ratio KB85/KB” value turned out to be 1.7 and the IC50 stood at 100 nM. Also, in the experiment with KB-V1 (MDR1++), the “Ratio KBV1/KB” value is 40.1 and the concentration for half-maximal inhibition (IC50) is 2360 nM.
As to `CCOC(=O)/C(C)=C/[C@H](C(C)C)N(C)C(=O)[C@@H](NC(=O)[C@@H](NC)C(C)(C)c1ccccc1OC)C(C)(C)C` [Example 54, 2-Methoxy-N,β,β-trimethyl-L-phenylalanyl-N^1-[(1S,2E)-4-ethoxy-1-isopropyl-3-methyl-4-oxo-2-butenyl]-N^1,3-dimethyl-L-valinamide], in the experiment on KB-3-1, the IC50 is 126 nM. Moreover, in the experiment on KB-8-5 (MDR1+), the “Ratio KB85/KB” value was 4.8 and the half-inhibitory concentration (IC50) was 602 nM. Also, in the experiment on KB-V1 (MDR1++), the “Ratio KBV1/KB” value came out at 16.6 and the IC50 is 2090 nM.
For `CNC(C(=O)NC(C(=O)N(C)C(C=C(C)C(=O)O)C(C)C)C(C)(C)C)C(C)c1ccccc1.O=C(O)C(F)(F)F` (centres unmarked) [Example 100, 4-{[3,3-Dimethyl-2-(2-methylamino-3-phenyl-butyrylamino)-butyryl]-methyl-amino}-2,5-dimethyl-hex-2-enoic Acid Trifluoroacetic Acid] the same measures were 114 nM, 1.7, 197 nM, 26.2 and at least 3000 nM.
For `CCOC(=O)/C(C)=C/[C@H](C(C)C)N(C)C(=O)[C@@H](NC(=O)[C@H](NC)C(C)(C)c1cc(C)cc(C)c1)C(C)(C)C` [Example 16b, N,β,β,3,5-pentamethyl-D-phenylalanyl-N^1-[(1S,2E)-4-ethoxy-1-isopropyl-3-methyl-4-oxo-2-butenyl]-N^1,3-dimethyl-L-valinamide] the same measures were 257 nM, 5.9, 1510 nM, 11.7 and at least 3000 nM.
Turning to `CN[C@H](C(=O)N[C@H](C(=O)N(C)[C@H](/C=C(\C)C(=O)O)C(C)C)C(C)(C)F)C(C)(C)c1ccccc1` [Example 149, N,β,β-trimethyl-L-phenylalanyl-N^1-[(1S,2E)-3-carboxy-1-isopropylbut-2-enyl]-3-fluoro-N^1-methyl-L-valinamide], the figures for the IC50 in the experiment with KB-3-1, with KB-8-5 (MDR1+) and with KB-V1 (MDR1++) were 1.6 nM, 3.5 nM and 117 nM, respectively. Also, the “Ratio KB85/KB” value in the experiment on KB-8-5 (MDR1+) stood at 2.2.
Consider `CN[C@H](C(=O)N[C@H](C(=O)N(C)[C@H](/C=C(\C)C(N)=O)C(C)C)C(C)(C)C)C(C)(C)c1ccccc1` [Example 107, (E,4S)-4-[((2S)-3,3-dimethyl-2-{[(2S)-3-methyl-2-(methylamino)-3-phenylbutanoyI]amino}butanoyl)(methyl)amino]-2,5-dimethyl-2-hexenamide], for which the 50% inhibitory concentration (IC50) with KB-3-1 is 64.7 nM; in the experiment with KB-8-5 (MDR1+) it was 162 nM; in the experiment on KB-V1 (MDR1++), at least 3000 nM. Further, the “Ratio KB85/KB” value in the experiment on KB-8-5 (MDR1+) came to 2.5. In addition, the “Ratio KBV1/KB” value in the experiment with KB-V1 (MDR1++) is recorded as 46.4.
As for `CN[C@H](C(=O)N[C@H](C(=O)N(C)[C@H](/C=C(\C)C(=O)O)C(C)C)C(C)(C)O)C(C)(C)c1ccccc1` [Example 156, N,β,β-trimethyl-L-phenylalanyl-N^1-[(1S,2E)-3-carboxy-1-isopropylbut-2-enyl]-3-hydroxy-N^1-methyl-L-valinamide], the IC50 in the experiment on KB-3-1 came to 58 nM. In the experiment on KB-8-5 (MDR1+), the “Ratio KB85/KB” value was 1.6 and the IC50 worked out at 95 nM. Besides, in the experiment on KB-V1 (MDR1++), the “Ratio KBV1/KB” value was 51.7 and the IC50 is above 3000 nM.
For `CN[C@H](C(=O)N[C@H](C(=O)N(C)[C@H](/C=C(\C)C(=O)O)C(C)C)C(C)(C)c1ccc(OC)cc1)C(C)(C)c1ccccc1` [Example 87, N,β,β-trimethyl-L-phenylalanyl-N-[(1S,2E)-3-carboxy-1-isopropyl-2-butenyl]-N,O,β,β-tetramethyl-L-tyrosinamide] the same measures were 27.2 nM, 2.1, 56.3 nM, 72.4 and 1970 nM.
For `CN[C@H](C(=O)N[C@H](C(=O)N(C)[C@H](/C=C(\C)C(=O)O)C(C)C)C(C)(C)C)C(C)(C)c1ccc(OC)cc1OC` [Example 59, 2-Methoxy-N,O,β,β-tetramethyl-L-tyrosyl-N^1-[(1S,2E)-3-carboxy-1-isopropyl-2-butenyl]-N^1,3-dimethyl-L-valinamide] the same measures were 2.4 nM, 5.5, 13.2 nM, 446.7 and 1070 nM.
For `CCOC(=O)/C(C)=C/[C@H](C(C)C)N(C)C(=O)[C@@H](NC(=O)[C@@H](NC)C(C)(C)c1ccc(C)cc1)C(C)(C)C` [Example 10a, N,β,β,4-Tetramethyl-L-phenylalanyl-N^1-[(1S,2E)-4-ethoxy-1-isopropyl-3-methyl4-oxo-2-butenyl]-N^1,3-dimethyl-L-valinamide] the same measures were 33.9 nM, 15.5, 525 nM, 52.4 and 1780 nM.
Take `CN[C@H](C(=O)N[C@H](C(=O)N(C)[C@H](/C=C(\C)C(=O)O)C(C)C)C(C)(C)C)C(C)(C)c1cccc(OC)c1` [Example 46, 3-Methoxy-N,β,β-trimethylphenylalanyl-N^1-[(1S,2E)-3-carboxy-1-isopropyl-2-butenyl]-N^1,3-dimethyl-L-valinamide]: in the experiment on KB-3-1, the IC50 was 3.5 nM. For the same compound, in the experiment on KB-8-5 (MDR1+), the “Ratio KB85/KB” value is listed as 1.7 and the IC50 was 5.9 nM. Besides, in the experiment with KB-V1 (MDR1++), the “Ratio KBV1/KB” value was 64.0 and the IC50 was 224 nM.
As to `CN[C@H](C(=O)N[C@H](C(=O)N(C)[C@H](/C=C(\C)C(=O)Nc1ccc(N=[N+]=[N-])cc1)C(C)C)C(C)(C)C)C(C)(C)c1ccccc1` [Example 111, N,β,β-trimethyl-L-phenylalanyl-N^1-{(1S,2E)-4-[(4-azidophenyl)amino]-1-isopropyl-3-methyl-4-oxo-2-butenyl}-N^1,3-dimethyl-L-valinamide], the IC50 in the experiment with KB-3-1 turned out to be 178 nM. Also, in the experiment with KB-8-5 (MDR1+), the “Ratio KB85/KB” value is reported as 2.9 and the IC50 turned out to be 513 nM. In the experiment with KB-V1 (MDR1++), the “Ratio KBV1/KB” value is on record as 12.6 and the IC50 came out at 2240 nM.
As to `CCN[C@H](C(=O)N[C@H](C(=O)N(C)[C@H](/C=C(\C)C(=O)OCC)C(C)C)C(C)(C)C)C(C)(C)c1ccccc1` [Example 31, N-Ethyl-β,β-dimethylphenylalanyl-N^1-[(1S,2E)-4-ethoxy-1-isopropyl-3-methyl4-oxo-2-butenyl]-N^1,3-dimethyl-L-valinamide], the IC50 in the experiment on KB-3-1 came to 436 nM. Moreover, in the experiment with KB-8-5 (MDR1+), the “Ratio KB85/KB” value is 4.3 and the IC50 is 1860 nM. For the same compound, in the experiment on KB-V1 (MDR1++), the “Ratio KBV1/KB” value is recorded as 6.9 and the IC50 is at least 3000 nM.
The like results for `CN[C@H](C(=O)N[C@@H](C(=O)N(C)[C@H](/C=C(\C)C(=O)O)C(C)C)C(C)C)C(C)(C)c1ccccc1` [Example 131, N,β,β-trimethyl-L-phenylalanyl-N^1-[(1S,2E)-3-carboxy-1-isopropylbut-2-enyl]-N^1-methyl-D-valinamide] were, in that order, 6 nM, 2.0, 12 nM, 512.8 and at least 3000 nM.
The like results for `CN[C@H](C(=O)N[C@H](C(=O)N(C)[C@H](/C=C(\C)C(=O)O)C(C)C)C(C)(C)C)C(C)(C)c1cc2ccccc2s1` [Example 28, 3-(1-Benzothien-2-yl)-N-methylvalyl-N^1-[(1S,2E)-3-carboxy-1-isopropyl-2-butenyl]-N^1,3-dimethyl-L-valinamide] were, in that order, 2.55 nM, 1.8, 4.6 nM, 54.4 and 139 nM.

In general, IC50 refers to the concentration that inhibits the measured activity by half.
